# According to ChEMBL document CHEMBL3046322, “Insect growth regulatory effects by diterpenes from Calceolaria talcana Grau & Ehrhart (Calceolariaceae: Scrophulariaceae) against Spodoptera frugiperda and Drosophila melanogaster” (2013):
# Activity calls are given as the source filed them. The calls are words filed in the database; no cut-off is given here.
# Key:
# Drosophila melanogaster [1] = assay: Insecticidal activity against Drosophila melanogaster larvae fed with compound incorporated diet assessed as mortality at 5 to 100 ug/ml after 72 hr by not choice test (reference value: 0%); type: functional, organism-based
# Spodoptera frugiperda [2] = assay: Growth inhibitory activity against Spodoptera frugiperda (fall armyworm) larvae fed with compound containing diet assessed as relative growth index at 25 ug/ml (reference value: 1.0 no_unit); type: functional
# Spodoptera frugiperda [3] = assay: Growth inhibitory activity against Spodoptera frugiperda (fall armyworm) larvae fed with compound containing diet assessed as relative growth index at 50 ug/ml (reference value: 1.0 no_unit); type: functional
# Spodoptera frugiperda [4] = assay: Growth inhibitory activity against Spodoptera frugiperda (fall armyworm) larvae fed with compound containing diet assessed as growth index at 25 ug/ml (reference value: 0.95 +/-0.02 no_unit); type: functional
# Drosophila melanogaster [5] = assay: Insecticidal activity against Drosophila melanogaster larvae fed with compound incorporated diet assessed as mortality at 20 ug/ml after 72 hr by not choice test (reference value: 0%); type: functional
# Drosophila melanogaster [6] = assay: Insecticidal activity against Drosophila melanogaster larvae fed with compound incorporated diet assessed as mortality at 100 ug/ml after 72 hr by not choice test (reference value: 0%); type: functional
# Spodoptera frugiperda [7] = assay: Growth inhibitory activity against Spodoptera frugiperda (fall armyworm) larvae fed with compound containing diet assessed as growth index at 10 ug/ml (reference value: 0.95 +/-0.02 no_unit); type: functional
# Drosophila melanogaster [8] = assay: Insecticidal activity against Drosophila melanogaster larvae fed with compound incorporated diet assessed as mortality at 50 ug/ml after 72 hr by not choice test (reference value: 0%); type: functional
# Spodoptera frugiperda [9] = assay: Growth inhibitory activity against Spodoptera frugiperda (fall armyworm) larvae fed with compound containing diet assessed as relative growth index at 35 ug/ml (reference value: 1.0 no_unit); type: functional
# Spodoptera frugiperda [10] = assay: Growth inhibitory activity against Spodoptera frugiperda (fall armyworm) larvae fed with compound containing diet assessed as relative growth index at 10 ug/ml (reference value: 1.0 no_unit); type: functional
# Spodoptera frugiperda [11] = assay: Growth inhibitory activity against Spodoptera frugiperda (fall armyworm) larvae fed with compound containing diet assessed as growth index at 35 ug/ml (reference value: 0.95 +/-0.02 no_unit); type: functional
# Spodoptera frugiperda [12] = assay: Growth inhibitory activity against po dosed fourth-instar larvae of Spodoptera frugiperda (fall armyworm) assessed as proportion of prothetely appearance of precocious pupal structure in larvae after 48 to 72 hr; type: functional; parameters: scale not given: the % may be the effect or the level left
# Spodoptera frugiperda [13] = assay: Growth inhibitory activity against po dosed Spodoptera frugiperda (fall armyworm) larvae assessed as promotion of apolysis to fifth instar with ecdysis inhibition at 5 to 20 ug/ml; type: functional, organism-based
# Spodoptera frugiperda [14] = assay: Growth inhibitory activity against Spodoptera frugiperda (fall armyworm) larvae fed with compound containing diet assessed as growth index at 50 ug/ml (reference value: 0.95 +/-0.02 no_unit); type: functional
# Spodoptera frugiperda [15] = assay: Growth inhibitory activity against Spodoptera frugiperda (fall armyworm) larvae fed with compound containing diet assessed as delay in adult emergence; type: functional, organism-based
# Spodoptera frugiperda [16] = assay: Growth inhibitory activity against first-instar larval stage of Spodoptera frugiperda (fall armyworm) fed with compound incorporated diet assessed as length gained at 25 ug/ml after 7 days (reference value: 100%); type: functional; parameters: scale not given: the % may be the effect or the level left
# Spodoptera frugiperda [17] = assay: Growth inhibitory activity against first-instar larval stage of Spodoptera frugiperda (fall armyworm) fed with compound incorporated diet assessed as length gained at 50 ug/ml after 21 days (reference value: 100%); type: functional
# Spodoptera frugiperda [18] = assay: Insecticidal activity against first-instar larval stage of Spodoptera frugiperda (fall armyworm) fed with compound incorporated diet assessed as mortality at 10 ug/ml after 7 days (reference value: 5.6%); type: functional; details: 168 h
# Spodoptera frugiperda [19] = assay: Growth inhibitory activity against first-instar larval stage of Spodoptera frugiperda (fall armyworm) fed with compound incorporated diet assessed as weight gained at 50 ug/ml after 7 days (reference value: 100%); type: functional; parameters: scale not given: the % may be the effect or the level left
# Spodoptera frugiperda [20] = assay: Growth inhibitory activity against first-instar larval stage of Spodoptera frugiperda (fall armyworm) fed with compound incorporated diet assessed as weight gained at 50 ug/ml after 21 days (reference value: 100%); type: functional
# Spodoptera frugiperda [21] = assay: Growth inhibitory activity against Spodoptera frugiperda (fall armyworm) larvae fed with compound containing diet assessed as delay in time to pupation; type: functional, organism-based
# Spodoptera frugiperda [22] = assay: Growth inhibitory activity against first-instar larval stage of Spodoptera frugiperda (fall armyworm) fed with compound incorporated diet assessed as length gained at 10 ug/ml after 21 days (reference value: 100%); type: functional
# Spodoptera frugiperda [23] = assay: Insecticidal activity against first-instar larval stage of Spodoptera frugiperda (fall armyworm) fed with compound incorporated diet assessed as mortality at 50 ug/ml after 7 days (reference value: 5.6%); type: functional; details: 168 h
# Spodoptera frugiperda [24] = assay: Insecticidal activity against first-instar larval stage of Spodoptera frugiperda (fall armyworm) fed with compound incorporated diet assessed as mortality at 10 ug/ml after 21 days (reference value: 5.6%); type: functional; details: 504 h
# Spodoptera frugiperda [25] = assay: Growth inhibitory activity against first-instar larval stage of Spodoptera frugiperda (fall armyworm) fed with compound incorporated diet assessed as weight gained at 10 ug/ml after 21 days (reference value: 100%); type: functional
# Spodoptera frugiperda [26] = assay: Insecticidal activity against first-instar larval stage of Spodoptera frugiperda (fall armyworm) fed with compound incorporated diet assessed as mortality at 25 ug/ml after 7 days (reference value: 5.6%); type: functional; details: 168 h
# Spodoptera frugiperda [27] = assay: Growth inhibitory activity against first-instar larval stage of Spodoptera frugiperda (fall armyworm) fed with compound incorporated diet assessed as weight gained at 25 ug/ml after 21 days (reference value: 100%); type: functional; parameters: scale not given: the % may be the effect or the level left
# Spodoptera frugiperda [28] = assay: Growth inhibitory activity against first-instar larval stage of Spodoptera frugiperda (fall armyworm) fed with compound incorporated diet assessed as length gained at 25 ug/ml after 21 days (reference value: 100%); type: functional; parameters: scale not given: the % may be the effect or the level left
# Spodoptera frugiperda [29] = assay: Growth inhibitory activity against Spodoptera frugiperda (fall armyworm) larvae fed with compound containing diet assessed as reduction in adult emergence at 35 ug/ml; type: functional
# Spodoptera frugiperda [30] = assay: Acute toxicity against last larval stage of Spodoptera frugiperda (fall armyworm) assessed as survival at 10 ug/ml applied topically onto abdomen measured after 24 hr (reference value: 98.8 +/-3.5%); type: functional
# Spodoptera frugiperda [31] = assay: Insecticidal activity against first-instar larval stage of Spodoptera frugiperda (fall armyworm) fed with compound incorporated diet assessed as mortality at 25 ug/ml after 21 days (reference value: 5.6%); type: functional; details: 504 h
# Spodoptera frugiperda [32] = assay: Growth inhibitory activity against first-instar larval stage of Spodoptera frugiperda (fall armyworm) fed with compound incorporated diet assessed as weight gained at 25 ug/ml after 7 days (reference value: 100%); type: functional; parameters: scale not given: the % may be the effect or the level left
# Spodoptera frugiperda [33] = assay: Growth inhibitory activity against Spodoptera frugiperda (fall armyworm) larvae fed with compound containing diet assessed as reduction in adult emergence at 20 ug/ml; type: functional
# Spodoptera frugiperda [34] = assay: Insecticidal activity against first-instar larval stage of Spodoptera frugiperda (fall armyworm) fed with compound incorporated diet assessed as mortality at 50 ug/ml after 21 days (reference value: 5.6%); type: functional; details: 504 h
# Spodoptera frugiperda [35] = assay: Growth inhibitory activity against first-instar larval stage of Spodoptera frugiperda (fall armyworm) fed with compound incorporated diet assessed as length gained at 10 ug/ml after 7 days (reference value: 100%); type: functional
# Spodoptera frugiperda [36] = assay: Acute toxicity against last larval stage of Spodoptera frugiperda (fall armyworm) assessed as survival at 25 ug/ml applied topically onto abdomen measured after 24 hr (reference value: 98.8 +/-3.5%); type: functional
# Spodoptera frugiperda [37] = assay: Growth inhibitory activity against first-instar larval stage of Spodoptera frugiperda (fall armyworm) fed with compound incorporated diet assessed as length gained at 50 ug/ml after 7 days (reference value: 100%); type: functional
# Spodoptera frugiperda [38] = assay: Growth inhibitory activity against first-instar larval stage of Spodoptera frugiperda (fall armyworm) fed with compound incorporated diet assessed as weight gained at 10 ug/ml after 7 days (reference value: 100%); type: functional; parameters: scale not given: the % may be the effect or the level left
structure (smiles),measurement,setting,value
C=C(C)[C@@H]1CC[C@]2(C)CC[C@]3(C)[C@H](CC[C@@H]4[C@@]5(C)CC[C@H](O)C(C)(C)[C@@H]5CC[C@]43C)[C@@H]12,mortality,Drosophila melanogaster [1],inactive
CC1OC2=C(C(=O)c3ccccc3C2=O)C1(C)C (stereo unspecified),mortality,Drosophila melanogaster [1],inactive
CC[C@H](CC[C@@H](C)[C@H]1CC[C@H]2[C@@H]3CC=C4C[C@@H](O)CC[C@]4(C)[C@H]3CC[C@]12C)C(C)C,mortality,Drosophila melanogaster [1],inactive
C[C@@H]1O[C@@H](O[C@@H]2[C@@H](O)[C@H](OCCc3ccc(O)c(O)c3)O[C@H](CO)[C@H]2OC(=O)/C=C/c2ccc(O)c(O)c2)[C@H](O)[C@H](O)[C@H]1O [ACETOSIDE],Growth_index,Spodoptera frugiperda [2],0.45
same,Growth_index,Spodoptera frugiperda [3],0.1
same,Growth_index,Spodoptera frugiperda [4],0.41
same,mortality at 20 µg/mL,Drosophila melanogaster [5],92%
same,mortality at 100 µg/mL,Drosophila melanogaster [6],100%
same,Growth_index,Spodoptera frugiperda [7],0.66
same,mortality at 50 µg/mL,Drosophila melanogaster [8],100%
same,Growth_index,Spodoptera frugiperda [9],0.15
same,Growth_index,Spodoptera frugiperda [10],0.67
same,Growth_index,Spodoptera frugiperda [11],0.09
same,Activity,Spodoptera frugiperda [12],30%
same,Activity,Spodoptera frugiperda [13],Active
same,Growth_index,Spodoptera frugiperda [14],0.07
CC(=O)O[C@@H]1C[C@H]2C(C)(C)C(=O)C=C[C@]2(C)[C@H]2CC[C@@]3(C)[C@H](c4ccoc4)OC(=O)[C@H]4O[C@]43[C@@]21C [GEDUNIN],inhibition,Spodoptera frugiperda [15],Active
same,Growth_index,Spodoptera frugiperda [2],0.55
same,Activity,Spodoptera frugiperda [16],20%
same,Growth_index,Spodoptera frugiperda [3],0.11
same,Length gained (% of control),Spodoptera frugiperda [17],11.6%
same,Growth_index,Spodoptera frugiperda [4],0.51
same,mortality at 10 µg/mL,Spodoptera frugiperda [18],33%
same,mortality at 20 µg/mL,Drosophila melanogaster [5],87.1%
same,Activity,Spodoptera frugiperda [19],1.9%
same,Weight gain relative to control,Spodoptera frugiperda [20],2.05%
same,mortality at 100 µg/mL,Drosophila melanogaster [6],11%
same,inhibition,Spodoptera frugiperda [21],Active
same,Growth_index,Spodoptera frugiperda [7],0.77
same,Length gained relative to control,Spodoptera frugiperda [22],0%
same,mortality at 50 µg/mL,Drosophila melanogaster [8],100%
same,mortality at 50 µg/mL,Spodoptera frugiperda [23],70.8%
same,mortality at 10 µg/mL,Spodoptera frugiperda [24],100%
same,Weight gain (% of control),Spodoptera frugiperda [25],0%
same,mortality at 25 µg/mL,Spodoptera frugiperda [26],38%
same,Activity,Spodoptera frugiperda [27],0%
same,Activity,Spodoptera frugiperda [28],0%
same,inhibition at 35 µg/mL,Spodoptera frugiperda [29],0%
same,Activity,Spodoptera frugiperda [30],54.7%
same,mortality at 25 µg/mL,Spodoptera frugiperda [31],100%
same,Activity,Spodoptera frugiperda [32],3.3%
same,inhibition at 20 µg/mL,Spodoptera frugiperda [33],0%
same,mortality at 50 µg/mL,Spodoptera frugiperda [34],98.7%
same,Larval length gained (% of control),Spodoptera frugiperda [35],32.5%
same,Growth_index,Spodoptera frugiperda [10],0.71
same,Activity,Spodoptera frugiperda [36],14.1%
same,Length gain relative to control,Spodoptera frugiperda [37],16.7%
same,Activity,Spodoptera frugiperda [12],30%
same,Activity,Spodoptera frugiperda [38],7.1%
same,Activity,Spodoptera frugiperda [13],Active
same,Growth_index,Spodoptera frugiperda [14],0.1
